Where two headings read alike, the source gives them in different places.

Assay [1] deals with EGFR del19/T790M/C797S (Homo sapiens, UniProt P00533, C797S/DEL746-750/T790M). The assay can be described thus: Biochemical EGFR kinase assay (Lance Ultra TR-FRET), triple mutant del19/T790M/C797S. Put shortly:
(§1)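 In this biochemical assay, phosphorylation after a one-hour room-temperature reaction was detected with europium-labelled anti-phosphopeptide antibody at 2 nM final concentration.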
(In general: In TR-FRET formats the signal depends on donor and acceptor labels being close together.)

Assay [2] deals with EGFR wildtype (WT) (Homo sapiens, UniProt P00533). The assay can be described thus: Biochemical EGFR kinase assay (Lance Ultra TR-FRET), wildtype. Put shortly: as §1
Sequence of EGFR wildtype (WT) (P00533 25-1210): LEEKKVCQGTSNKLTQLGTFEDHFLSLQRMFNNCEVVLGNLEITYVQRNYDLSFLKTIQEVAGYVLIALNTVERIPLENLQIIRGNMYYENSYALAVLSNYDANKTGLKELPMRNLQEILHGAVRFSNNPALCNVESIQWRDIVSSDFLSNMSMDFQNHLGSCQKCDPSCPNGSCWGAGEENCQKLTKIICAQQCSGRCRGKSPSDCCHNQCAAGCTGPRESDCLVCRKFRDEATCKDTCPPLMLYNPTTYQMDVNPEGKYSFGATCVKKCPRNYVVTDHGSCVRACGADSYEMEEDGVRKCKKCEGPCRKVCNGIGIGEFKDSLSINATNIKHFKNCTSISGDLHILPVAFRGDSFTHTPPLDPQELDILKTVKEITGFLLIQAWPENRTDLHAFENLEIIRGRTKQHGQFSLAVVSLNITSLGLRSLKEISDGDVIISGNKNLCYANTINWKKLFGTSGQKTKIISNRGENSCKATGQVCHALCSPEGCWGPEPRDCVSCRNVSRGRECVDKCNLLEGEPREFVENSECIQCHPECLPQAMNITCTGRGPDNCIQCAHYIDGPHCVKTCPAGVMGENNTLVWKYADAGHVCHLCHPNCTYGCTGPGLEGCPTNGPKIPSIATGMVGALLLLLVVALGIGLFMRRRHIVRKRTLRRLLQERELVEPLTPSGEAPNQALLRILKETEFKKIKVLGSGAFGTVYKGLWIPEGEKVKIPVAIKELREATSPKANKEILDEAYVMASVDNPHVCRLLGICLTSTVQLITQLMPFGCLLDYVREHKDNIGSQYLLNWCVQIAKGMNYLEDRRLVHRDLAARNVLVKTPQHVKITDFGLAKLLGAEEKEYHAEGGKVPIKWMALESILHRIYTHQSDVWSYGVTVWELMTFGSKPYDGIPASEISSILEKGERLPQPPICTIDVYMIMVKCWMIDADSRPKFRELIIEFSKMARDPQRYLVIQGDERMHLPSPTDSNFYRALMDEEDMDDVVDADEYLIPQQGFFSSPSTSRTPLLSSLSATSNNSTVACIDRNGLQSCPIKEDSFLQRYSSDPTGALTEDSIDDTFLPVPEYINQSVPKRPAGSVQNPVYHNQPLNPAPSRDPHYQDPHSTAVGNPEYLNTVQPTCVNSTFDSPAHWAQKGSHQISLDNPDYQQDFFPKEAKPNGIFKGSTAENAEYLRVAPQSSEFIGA
Assay [3] concerns the target EGFR del19/C797S (Homo sapiens, UniProt P00533, C797S/DEL746-750). The assay can be described thus: Biochemical EGFR kinase assay (Lance Ultra TR-FRET), double mutant del19/C797S. In outline: as §1
The target in assay [4] is EGFR L858R/T790M/C797S (Homo sapiens, UniProt P00533, C797S/L858R/T790M). Briefly: Biochemical EGFR kinase assay (Lance Ultra TR-FRET), triple mutant L858R/T790M/C797S. In outline: as §1
Sequence of EGFR L858R/T790M/C797S (P00533 25-1210 T790M/C797S/L858R): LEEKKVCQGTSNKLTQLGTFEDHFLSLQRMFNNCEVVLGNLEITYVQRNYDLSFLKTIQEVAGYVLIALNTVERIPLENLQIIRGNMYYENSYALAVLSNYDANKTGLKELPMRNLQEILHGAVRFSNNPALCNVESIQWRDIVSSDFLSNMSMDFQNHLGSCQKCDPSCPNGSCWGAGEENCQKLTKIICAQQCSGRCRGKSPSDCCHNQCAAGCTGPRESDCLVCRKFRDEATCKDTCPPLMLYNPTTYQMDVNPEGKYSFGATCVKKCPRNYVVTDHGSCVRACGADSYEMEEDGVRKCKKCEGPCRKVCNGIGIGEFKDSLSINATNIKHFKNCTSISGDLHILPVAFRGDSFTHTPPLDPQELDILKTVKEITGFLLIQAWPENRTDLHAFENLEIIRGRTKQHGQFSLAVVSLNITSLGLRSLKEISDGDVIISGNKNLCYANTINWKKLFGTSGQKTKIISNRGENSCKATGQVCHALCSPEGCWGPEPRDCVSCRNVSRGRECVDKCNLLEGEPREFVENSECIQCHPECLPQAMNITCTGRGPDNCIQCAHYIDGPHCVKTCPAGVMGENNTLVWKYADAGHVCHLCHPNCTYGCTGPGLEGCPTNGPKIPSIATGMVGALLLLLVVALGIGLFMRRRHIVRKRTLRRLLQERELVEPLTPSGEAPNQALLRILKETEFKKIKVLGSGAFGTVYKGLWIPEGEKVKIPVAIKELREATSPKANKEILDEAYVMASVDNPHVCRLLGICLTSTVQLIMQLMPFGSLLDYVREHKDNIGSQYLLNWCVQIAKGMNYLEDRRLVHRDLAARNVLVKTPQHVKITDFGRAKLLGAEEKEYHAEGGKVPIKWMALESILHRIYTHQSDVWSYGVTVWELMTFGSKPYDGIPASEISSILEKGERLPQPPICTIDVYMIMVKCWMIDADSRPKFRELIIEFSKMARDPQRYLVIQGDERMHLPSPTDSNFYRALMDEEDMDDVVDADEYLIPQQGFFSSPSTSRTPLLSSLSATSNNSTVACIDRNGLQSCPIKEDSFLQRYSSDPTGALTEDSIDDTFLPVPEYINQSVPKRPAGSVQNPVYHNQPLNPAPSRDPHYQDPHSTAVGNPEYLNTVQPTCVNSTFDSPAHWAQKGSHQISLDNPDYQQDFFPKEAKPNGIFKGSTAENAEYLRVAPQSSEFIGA
In assay [5] the target is EGFR L858R/C797S (Homo sapiens, UniProt P00533, C797S/L858R). The assay can be described thus: Biochemical EGFR kinase assay (Lance Ultra TR-FRET), double mutant L858R/C797S. In outline: as §1
[6] abbreviates: Km ATP, read-out: IC50 del19/T790M/C797S (nM) Km ATP.
[7] abbreviates: Km ATP, read-out: IC50 WT (nM) Km ATP.
The mark [8] stands for this setting: Km ATP, read-out: IC50 del19/C797S (nM) Km ATP.
Setting [9] is: Km ATP, read-out: IC50 L858R/T790M/C797S (nM) Km ATP.
Setting [10] is: Km ATP, read-out: IC50 L858R/C797S (nM) Km ATP.
[11] abbreviates: IC50 del19/T790M/C797S (nM) 100 μM ATP, 100 μM ATP.
The mark [12] stands for this setting: IC50 WT (nM) 100 μM ATP, 100 μM ATP.
Setting [13] is: IC50 del19/C797S (nM) 100 μM ATP, 100 μM ATP.
Where [14] appears, read: IC50 L858R/T790M/C797S (nM) 100 μM ATP, 100 μM ATP.
The mark [15] stands for this setting: IC50 L858R/C797S (nM) 100 μM ATP, 100 μM ATP.

Sequence of EGFR del19/T790M/C797S (P00533 with tags, fused parts or gaps DEL746-750/T790M/C797S): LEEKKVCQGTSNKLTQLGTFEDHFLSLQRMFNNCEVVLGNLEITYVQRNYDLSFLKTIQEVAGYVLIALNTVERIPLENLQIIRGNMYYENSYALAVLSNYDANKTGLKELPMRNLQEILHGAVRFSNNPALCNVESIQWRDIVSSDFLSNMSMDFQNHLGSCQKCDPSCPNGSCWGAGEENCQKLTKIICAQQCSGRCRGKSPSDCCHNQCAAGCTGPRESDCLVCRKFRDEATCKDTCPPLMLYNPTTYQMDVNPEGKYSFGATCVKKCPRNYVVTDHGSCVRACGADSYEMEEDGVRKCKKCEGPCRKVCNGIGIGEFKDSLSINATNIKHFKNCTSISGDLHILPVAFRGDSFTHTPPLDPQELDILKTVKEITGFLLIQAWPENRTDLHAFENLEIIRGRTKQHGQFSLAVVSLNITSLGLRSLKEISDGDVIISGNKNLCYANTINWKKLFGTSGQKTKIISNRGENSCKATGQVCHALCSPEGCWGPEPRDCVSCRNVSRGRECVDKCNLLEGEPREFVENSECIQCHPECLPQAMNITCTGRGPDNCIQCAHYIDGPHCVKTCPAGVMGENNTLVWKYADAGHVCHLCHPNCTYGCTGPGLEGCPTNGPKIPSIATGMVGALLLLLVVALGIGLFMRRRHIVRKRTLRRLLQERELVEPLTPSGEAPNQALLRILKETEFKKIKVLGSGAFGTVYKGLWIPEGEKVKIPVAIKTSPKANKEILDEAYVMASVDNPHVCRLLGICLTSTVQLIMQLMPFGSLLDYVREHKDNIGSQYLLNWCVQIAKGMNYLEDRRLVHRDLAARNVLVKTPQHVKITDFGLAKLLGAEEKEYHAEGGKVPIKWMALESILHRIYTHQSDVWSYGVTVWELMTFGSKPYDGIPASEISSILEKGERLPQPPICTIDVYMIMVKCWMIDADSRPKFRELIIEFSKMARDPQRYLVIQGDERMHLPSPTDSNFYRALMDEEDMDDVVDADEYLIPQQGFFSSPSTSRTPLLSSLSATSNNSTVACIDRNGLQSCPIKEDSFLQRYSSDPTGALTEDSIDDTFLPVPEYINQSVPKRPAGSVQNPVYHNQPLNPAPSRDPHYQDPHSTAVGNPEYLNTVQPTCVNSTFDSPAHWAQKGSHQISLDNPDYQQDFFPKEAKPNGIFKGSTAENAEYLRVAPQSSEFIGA
Sequence of EGFR del19/C797S (P00533 with tags, fused parts or gaps DEL746-750/C797S): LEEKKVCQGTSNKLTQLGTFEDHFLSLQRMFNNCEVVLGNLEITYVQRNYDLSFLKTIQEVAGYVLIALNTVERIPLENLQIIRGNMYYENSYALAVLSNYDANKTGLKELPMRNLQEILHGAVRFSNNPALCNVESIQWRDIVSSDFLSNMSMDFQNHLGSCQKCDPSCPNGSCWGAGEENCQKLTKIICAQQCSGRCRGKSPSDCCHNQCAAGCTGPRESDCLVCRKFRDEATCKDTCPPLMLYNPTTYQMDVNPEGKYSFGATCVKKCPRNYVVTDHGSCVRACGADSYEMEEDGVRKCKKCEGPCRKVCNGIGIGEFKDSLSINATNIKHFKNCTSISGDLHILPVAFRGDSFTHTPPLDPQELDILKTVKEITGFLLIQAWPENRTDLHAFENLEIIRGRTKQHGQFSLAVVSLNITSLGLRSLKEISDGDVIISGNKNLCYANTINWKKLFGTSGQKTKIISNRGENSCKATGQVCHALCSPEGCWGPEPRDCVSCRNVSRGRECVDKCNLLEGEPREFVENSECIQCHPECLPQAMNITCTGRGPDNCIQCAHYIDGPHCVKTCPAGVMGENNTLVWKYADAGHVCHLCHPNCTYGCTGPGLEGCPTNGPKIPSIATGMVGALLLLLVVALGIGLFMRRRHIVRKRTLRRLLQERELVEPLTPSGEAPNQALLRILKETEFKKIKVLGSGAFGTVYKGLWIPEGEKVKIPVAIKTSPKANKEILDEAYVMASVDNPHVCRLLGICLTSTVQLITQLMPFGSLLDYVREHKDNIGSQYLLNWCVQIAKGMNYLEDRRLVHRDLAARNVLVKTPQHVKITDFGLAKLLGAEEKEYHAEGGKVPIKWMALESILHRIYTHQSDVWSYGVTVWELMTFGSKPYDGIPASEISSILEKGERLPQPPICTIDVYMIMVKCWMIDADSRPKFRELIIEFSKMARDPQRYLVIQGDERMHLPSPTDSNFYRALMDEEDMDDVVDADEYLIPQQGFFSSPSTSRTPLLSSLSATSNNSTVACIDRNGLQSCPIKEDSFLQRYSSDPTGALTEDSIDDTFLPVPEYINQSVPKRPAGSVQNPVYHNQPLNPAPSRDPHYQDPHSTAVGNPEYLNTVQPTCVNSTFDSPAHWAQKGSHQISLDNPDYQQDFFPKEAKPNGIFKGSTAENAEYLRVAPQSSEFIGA

As to `C[C@H](CCF)Nc1cc(Nc2ccnc(-c3cnn(S(=O)(=O)C4CC4)c3)n2)ncc1-c1ccn(C(F)F)n1` [Example 212, (R)—N^2-(2-(1-(Cyclopropylsulfonyl)-1H-pyrazol-4-yl)pyrimidin-4-yl)-5-(1-(difluoromethyl)-1H-pyrazol-3-yl)-N^4-(4-fluorobutan-2-yl)pyridine-2,4-diamine], the IC50 came to 2.1 nM in assay [1] (setting [6]); 294 nM in assay [2] (setting [7]); 72 nM in assay [3] (setting [8]); 2.3 nM in assay [4] (setting [9]); 38.5 nM in assay [5] (setting [10]).

`CN(C)CCCn1ccc(-c2cnc(Nc3ccnc(-c4cnn(S(=O)(=O)C5CC5)c4)n3)cc2N[C@H]2CC[C@@H](CO)CC2)n1` [Example 296, ((1s,4s)-4-((2-((2-(1-(Cyclopropylsulfonyl)-1H-pyrazol-4-yl)pyrimidin-4-yl)amino)-5-(1-(3-(dimethylamino)propyl)-1H-pyrazol-3-yl)pyridin-4-yl)amino)cyclohexyl)methanol]: the IC50 came out at 0.2 nM in assay [1] (setting [11]); 0.1 nM in assay [1] (setting [6]); 48.8 nM in assay [2] (setting [12]); 0.3 nM in assay [2] (setting [7]); 0.3 nM in assay [3] (setting [13]); 0.1 nM in assay [3] (setting [8]). Besides, the IC50 is 0.1 nM in assay [4] (setting [14]), 0.1 nM in assay [4] (setting [9]), 0.5 nM in assay [5] (setting [15]) and 0.1 nM in assay [5] (setting [10]).

For `COCn1ccc(-c2cnc(Nc3ccnc(-c4cnn(S(=O)(=O)C5CC5)c4)n3)cc2N[C@H]2CC[C@@H](C(C)(C)O)CC2)n1` [Example 299, 2-((1s,4s)-4-((2-((2-(1-(Cyclopropylsulfonyl)-1H-pyrazol-4-yl)pyrimidin-4-yl)amino)-5-(1-(methoxymethyl)-1H-pyrazol-3-yl)pyridin-4-yl)amino)cyclohexyl)propan-2-ol], the IC50 was 1.1 nM in assay [1] (setting [6]); 5 nM in assay [2] (setting [7]); 4.1 nM in assay [3] (setting [8]); 0.3 nM in assay [4] (setting [9]); 0.5 nM in assay [5] (setting [10]).

Regarding `FC(F)Cn1cc(-c2nccc(Nc3cc(NC4CCCC(F)C4)c(-c4ccn(C(F)F)n4)cn3)n2)cn1` (centres unmarked) [Example 180, N^2-(2-(1-(2,2-Difluoroethyl)-1H-pyrazol-4-yl)pyrimidin-4-yl)-5-(1-(difluoromethyl)-1H-pyrazol-3-yl)-N^4-(3-fluorocyclohexyl)pyridine-2,4-diamine], the IC50 was found to be 1.3 nM in assay [1] (setting [6]); 418 nM in assay [2] (setting [7]); 410 nM in assay [3] (setting [8]); 1.1 nM in assay [4] (setting [9]); 23.2 nM in assay [5] (setting [10]).

`CC(C)Nc1cc(Nc2ccnc(-c3cnn(S(=O)(=O)C4CC4)c3)n2)ncc1-c1csc(C(C)(C)O)n1` [Example 92, 2-(4-(6-((2-(1-(Cyclopropylsulfonyl)-1H-pyrazol-4-yl)pyrimidin-4-yl)amino)-4-(isopropylamino)pyridin-3-yl)thiazol-2-yl)propan-2-ol]: the IC50 was 2.6 nM in assay [1] (setting [11]); above 10000 nM in assay [2] (setting [12]); 10 nM in assay [3] (setting [13]); 7.7 nM in assay [4] (setting [14]); 103 nM in assay [5] (setting [15]).

In the case of `Cn1ccc(-c2cnc(Nc3ccnc(-c4cnn(S(=O)(=O)C5CC5)c4)n3)cc2NCC2(C)CCC(O)CC2)n1` (centres unmarked) [Example 127, 4-(((2-((2-(1-(Cyclopropylsulfonyl)-1H-pyrazol-4-yl)pyrimidin-4-yl)amino)-5-(1-methyl-1H-pyrazol-3-yl)pyridin-4-yl)amino)methyl)-4-methylcyclohexan-1-ol], the IC50 in assay [1] (setting [11]) is 1 nM; in assay [1] (setting [6]), 0.7 nM; in assay [2] (setting [12]), above 10000 nM; in assay [2] (setting [7]), 53 nM; in assay [3] (setting [13]), 25.8 nM; in assay [3] (setting [8]) it was 16.9 nM. The IC50 stood at 1.8 nM in assay [4] (setting [14]), 0.7 nM in assay [4] (setting [9]), 355 nM in assay [5] (setting [15]) and 19.6 nM in assay [5] (setting [10]).

For the compound `O=S(=O)(C1CC1)n1cc(-c2nccc(Nc3cc(NC[C@H]4CC[C@H](O)CC4)c(-c4ccn(C(F)F)n4)cn3)n2)cn1` [Example 31, (1r,4r)-4-(((2-((2-(1-(Cyclopropylsulfonyl)-1H-pyrazol-4-yl)pyrimidin-4-yl)amino)-5-(1-(difluoromethyl)-1H-pyrazol-3-yl)pyridin-4-yl)amino)methyl)cyclohexan-1-ol], the IC50 in assay [1] (setting [11]) was 1.3 nM; in assay [1] (setting [6]), 0.4 nM; in assay [2] (setting [12]), above 10000 nM; in assay [2] (setting [7]), 10.5 nM; in assay [3] (setting [13]), 1.3 nM; in assay [3] (setting [8]) it was 0.5 nM. Also, the IC50 turned out to be 0.2 nM in assay [4] (setting [9]), 18.7 nM in assay [5] (setting [15]) and 1.3 nM in assay [5] (setting [10]).

For `C[C@]1(O)CC[C@@H](Nc2cc(Nc3nc(-c4cnn(S(=O)(=O)C5CC5)c4)ncc3F)ncc2-c2ccn(C(F)F)n2)CC1` [Example 316, (1s,4s)-4-((2-((2-(1-(Cyclopropylsulfonyl)-1H-pyrazol-4-yl)-5-fluoropyrimidin-4-yl)amino)-5-(1-(difluoromethyl)-1H-pyrazol-3-yl)pyridin-4-yl)amino)-1-methylcyclohexan-1-ol], the IC50 in assay [1] (setting [11]) was 0.7 nM; in assay [1] (setting [6]), 0.4 nM; in assay [2] (setting [12]), above 10000 nM; in assay [2] (setting [7]) it was 46 nM; in assay [3] (setting [13]) it was 10.5 nM; in assay [3] (setting [8]) it was 6 nM. In addition, the IC50 in assay [4] (setting [14]) amounted to 1 nM; in assay [4] (setting [9]) it was 0.2 nM; in assay [5] (setting [15]) it was 406 nM; in assay [5] (setting [10]), 11.2 nM.

Take `O=S(=O)(C1CC1)n1cc(-c2nccc(Nc3cc(N[C@H]4CC[C@H](CO)CC4)c(-c4ccn(C(F)F)n4)cn3)n2)cn1` [Example 198, ((1r,4r)-4-((2-((2-(1-(Cyclopropylsulfonyl)-1H-pyrazol-4-yl)pyrimidin-4-yl)amino)-5-(1-(difluoromethyl)-1H-pyrazol-3-yl)pyridin-4-yl)amino)cyclohexyl)methanol]: the IC50 in assay [1] (setting [11]) is 0.3 nM; in assay [2] (setting [12]), above 10000 nM; in assay [2] (setting [7]), 84.7 nM; in assay [3] (setting [13]), 2.2 nM; in assay [3] (setting [8]) it was 0.7 nM; in assay [4] (setting [14]) it was 3.3 nM. For the same compound, the IC50 turned out to be 0.1 nM in assay [4] (setting [9]), 3040 nM in assay [5] (setting [15]) and 4.2 nM in assay [5] (setting [10]).

As for `COCCn1cc(-c2nccc(Nc3cc(N[C@H]4CC[C@@](C)(O)CC4)c(-c4ccn(C(F)F)n4)cn3)n2)cn1` [Example 138, (1s,4s)-4-((5-(1-(Difluoromethyl)-1H-pyrazol-3-yl)-2-((2-(1-(2-methoxyethyl)-1H-pyrazol-4-yl)pyrimidin-4-yl)amino)pyridin-4-yl)amino)-1-methylcyclohexan-1-ol], the IC50 in assay [1] (setting [11]) was 0.4 nM; in assay [1] (setting [6]), 0.2 nM; in assay [2] (setting [12]) it was above 10000 nM; in assay [2] (setting [7]) it was 77.7 nM; in assay [3] (setting [13]), 47.6 nM; in assay [3] (setting [8]), 45.1 nM. Besides, the IC50 in assay [4] (setting [14]) stood at 0.8 nM; in assay [4] (setting [9]), 0.1 nM; in assay [5] (setting [15]), 295 nM; in assay [5] (setting [10]) it was 26.9 nM.

For the compound `O=S(=O)(C1CC1)n1cc(-c2nccc(Nc3cc(N[C@H]4CC[C@@H](NCCF)CC4)c(-c4ccn(C(F)F)n4)cn3)n2)cn1` [Example 9, N^2-(2-(1-(Cyclopropylsulfonyl)-1H-pyrazol-4-yl)pyrimidin-4-yl)-5-(1-(difluoromethyl)-1H-pyrazol-3-yl)-N^4-((1s,4s)-4-((2-fluoroethyl)amino)cyclohexyl)pyridine-2,4-diamine], the IC50 is 0.5 nM in assay [1] (setting [11]); 7100 nM in assay [2] (setting [12]); 4.3 nM in assay [3] (setting [13]); 0.5 nM in assay [4] (setting [14]); 7.6 nM in assay [5] (setting [15]).

The values above are taken from patent publication US12258327B2, “5-membered heteroaryl-containing aminopyridine compounds as EGFR inhibitors” (YUHAN CORPORATION, priority 2021, dated 2025).
